Results: patent US5624812A, “Method for measuring carbon dioxide and reagent therefor” (Toyo Boseki Kabushiki Kaisha, priority 1993, dated 1997)

Experiments:
[1] = biological target: T1, phosphoenolpyruvate carboxylase yielded by Acetobacter hansenii IFO 14820 (ATCC 35959) (Novacetimonas hansenii, UniProt A0ABQ0SBC7)
T1 sequence (A0ABQ0SBC7 1-933): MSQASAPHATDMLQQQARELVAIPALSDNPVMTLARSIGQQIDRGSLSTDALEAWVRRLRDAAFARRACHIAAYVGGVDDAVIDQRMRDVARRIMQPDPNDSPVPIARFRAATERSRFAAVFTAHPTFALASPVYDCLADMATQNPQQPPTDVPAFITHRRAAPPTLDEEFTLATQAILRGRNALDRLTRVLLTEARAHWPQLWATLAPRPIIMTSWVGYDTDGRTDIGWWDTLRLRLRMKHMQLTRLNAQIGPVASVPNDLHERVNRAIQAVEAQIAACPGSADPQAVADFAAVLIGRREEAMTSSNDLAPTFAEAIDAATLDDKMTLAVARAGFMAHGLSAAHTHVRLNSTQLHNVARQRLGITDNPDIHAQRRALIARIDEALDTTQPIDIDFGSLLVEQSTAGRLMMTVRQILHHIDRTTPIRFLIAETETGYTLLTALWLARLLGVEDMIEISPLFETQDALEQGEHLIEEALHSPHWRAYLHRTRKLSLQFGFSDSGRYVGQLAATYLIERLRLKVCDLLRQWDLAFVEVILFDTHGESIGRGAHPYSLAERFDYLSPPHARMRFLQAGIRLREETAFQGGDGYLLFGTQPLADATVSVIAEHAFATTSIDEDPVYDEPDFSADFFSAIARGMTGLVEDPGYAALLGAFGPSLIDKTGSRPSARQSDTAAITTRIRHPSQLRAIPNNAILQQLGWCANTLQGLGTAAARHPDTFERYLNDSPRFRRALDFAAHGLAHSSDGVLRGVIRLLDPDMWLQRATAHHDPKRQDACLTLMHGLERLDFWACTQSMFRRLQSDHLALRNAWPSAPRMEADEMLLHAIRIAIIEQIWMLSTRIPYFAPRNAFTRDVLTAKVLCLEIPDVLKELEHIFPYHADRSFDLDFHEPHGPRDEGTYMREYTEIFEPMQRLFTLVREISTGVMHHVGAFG
Description: A reaction mixture (2.9 ml) containing 50 mM Tris-HCl, 10 mM Na2 CO3, 3.2 mM phosphoenolpyruvic acid, 100 mM MgSO4, 0.14 mM NADH and 50 U/ml malate dehydrogenase is prepared in a cuvette (d=1 cm) and preheated at 30° C. for about 5 minutes. An enzyme solution (0.1 ml) is added thereto and the mixture is gently stirred. A change in absorbance at 340 nm is recorded for 2-3 minutes with a spectrophotometer using water adjusted to 30° C. as a control, and change in absorbance per minute is calculated from the initial linear portion thereof (ΔOD test). A blank test is performed by using 50 mM phosphate buffer (pH 7.0) in place of the enzyme solution and following the steps to determine changes in absorbance per minute (ΔOD blank).

[2] = substrate: C=C(OP(=O)(O)O)C(=O)O; test: purified protein, by the assay type; conditions: pH 7.0; 30.0 °C

## Nc1ncnc2c1ncn2[C@@H]1O[C@H](COP(=O)(O)OP(=O)(O)O)[C@@H](O)[C@H]1O [ADP]
[1]
  Inhibition by ADP: Not inhibited

## CC(=O)SCCNC(=O)CCNC(=O)[C@H](O)C(C)(C)COP(=O)(O)OP(=O)(O)OC[C@H]1O[C@@H](n2cnc3c(N)ncnc32)[C@H](O)[C@@H]1OP(=O)(O)O [acetyl CoA]
[1]
  Activation by acetyl CoA: Not activated

B1: phosphoenolpyruvate carboxylase yielded by Acetobacter hansenii IFO 14820 (ATCC 35959) (Novacetimonas hansenii) (protein)
chain: MSQASAPHATDMLQQQARELVAIPALSDNPVMTLARSIGQQIDRGSLSTDALEAWVRRLRDAAFARRACHIAAYVGGVDDAVIDQRMRDVARRIMQPDPNDSPVPIARFRAATERSRFAAVFTAHPTFALASPVYDCLADMATQNPQQPPTDVPAFITHRRAAPPTLDEEFTLATQAILRGRNALDRLTRVLLTEARAHWPQLWATLAPRPIIMTSWVGYDTDGRTDIGWWDTLRLRLRMKHMQLTRLNAQIGPVASVPNDLHERVNRAIQAVEAQIAACPGSADPQAVADFAAVLIGRREEAMTSSNDLAPTFAEAIDAATLDDKMTLAVARAGFMAHGLSAAHTHVRLNSTQLHNVARQRLGITDNPDIHAQRRALIARIDEALDTTQPIDIDFGSLLVEQSTAGRLMMTVRQILHHIDRTTPIRFLIAETETGYTLLTALWLARLLGVEDMIEISPLFETQDALEQGEHLIEEALHSPHWRAYLHRTRKLSLQFGFSDSGRYVGQLAATYLIERLRLKVCDLLRQWDLAFVEVILFDTHGESIGRGAHPYSLAERFDYLSPPHARMRFLQAGIRLREETAFQGGDGYLLFGTQPLADATVSVIAEHAFATTSIDEDPVYDEPDFSADFFSAIARGMTGLVEDPGYAALLGAFGPSLIDKTGSRPSARQSDTAAITTRIRHPSQLRAIPNNAILQQLGWCANTLQGLGTAAARHPDTFERYLNDSPRFRRALDFAAHGLAHSSDGVLRGVIRLLDPDMWLQRATAHHDPKRQDACLTLMHGLERLDFWACTQSMFRRLQSDHLALRNAWPSAPRMEADEMLLHAIRIAIIEQIWMLSTRIPYFAPRNAFTRDVLTAKVLCLEIPDVLKELEHIFPYHADRSFDLDFHEPHGPRDEGTYMREYTEIFEPMQRLFTLVREISTGVMHHVGAFG
[2]
  Km: 210 µM
